For one test, the system named is Tregs. Put plainly: Treg suppression assay. It is filed as cell-based, human. On the procedure:
Since these PBMC cultures contain Tregs, the suppressive ability of Tregs seem to be altered in the presence of soluble β-glucan and studies were carried out to determine if β-glucan affected Treg suppression. Plasma from β-glucan-treated or vehicle-treated whole blood (described above) was added to 25,000 isolated CFSE-labeled autologous CD4 T cells (CD4^+CD25^−) along with increasing numbers of isolated autologous Tregs (CD4^+CD25^+) resulting in wells with increasing ratios. Cells were then stimulated with 50,000 T cell activating CD3/28 beads for 3 days. Proliferation was subsequently measured by CFSE dilution and quantified by Division Index, which was used to calculate the % suppression of Tregs in the co-culture. % suppression=100-(Division Index of Treg well/Division Index of 1:0 well)[…].
The Treg suppression assay was conducted as described above, and after 3 days of co-culture, supernatants were analyzed for IFN-gamma production.

The next test has as its system CD4 T cells. Put plainly: Mac-CD4 T co-culture, surface marker modulation on T cells. The class given is cell-based, human. To be noted: T cells co-cultured with β-glucan-treated vs vehicle-treated M2 macrophages. On the procedure:
For evaluation of Mac-CD4 T cell surface marker modulation, M2 macrophages were co-cultured with T cells as described above and cells were harvested on day 8, day 9 and day 10 to perform surface receptor staining on both M2 macrophages and T cells.
Changes in surface marker expression on both macrophages and CD3 & CD28-stimulated T cells were also measured. Vehicle- and β-glucan-treated M2 macrophages and CD T cells from the co-cultures were evaluated by flow cytometry for the modulation of co-stimulatory or co-inhibitory molecules. FIG. 8C and Table 9 are representative results from 2 different experiments.

Another test has as its system H1299 NSCLC tumors. As to the kind of experiment: H1299 NSCLC tumors in mice, effect on TME. It is filed as in vivo. On the procedure: Mice bearing H1299 NSCLC tumors were administered bevacizumab (an anti-angiogenic antibody) (5 mg/kg twice weekly IP for four weeks) alone or in combination with IMPRIME PGG (1.2 mg/mouse twice weekly IV for four weeks) as described above for the other mouse studies. […] Increased iNOS and decreased Arginase 1 are markers indicating an M1, immunostimulatory environment.
In addition, at day 20, post tumor injection, spleens were harvested and single cell suspensions were stained with mouse antibodies and analyzed by FACS. GMFI or frequency was calculated in Flowjo after gating on CD11b+F4/80+CD68+ cells (FIG. 17D-FIG. 17F). FIG. 17D and FIG. 17E show an increase in iNOS and a decrease of Arginase-1, respectively. Spleen cells were also stimulated overnight with 100 ng/ml lipopolysaccharide (LPS) and analyzed for TNF-α production. […] As shown, Arginase-1 decreased and iNOS and CD86 increased, which indicates differentiation of splenic MDSC to M1/N1 macrophage/neutrophils with IMPRIME PGG treatment.
For FIG. 17K-FIG. 17M, tumors were harvested at day 20 and digested with type I collagenase for 1 hour at 37° C. Single cell suspensions were stained with mouse antibodies and analyzed by FACS. GMFI or frequency was calculated in Flowjo after gating on CD11b+ cells. As shown, PD-L1 and iNOS increased while Arginase-1 decreased indicating the shift in tumor-infiltrating myeloid cells to a M1-type phenotype.
Lastly, single cell suspensions of the tumor cells were cultured overnight and supernatants were measured for TGF-β by ELISA.

Where [1] appears, read: spleen, day 20, CD11b+F4/80+CD68+ cells.

“Also recorded” adds a separate entry of the source.

With “β(1,6)-[poly-(1,3)-D-glucopyranosyl]-poly-β(1,3)-D-glucopyranose [β-glucan]”, in the test on Tregs (Treg suppression assay, 3 days, 8:1 T cell to Treg ratio), the IFN-gamma production result is “enhanced IFN-gamma production”. Also, in the test with Tregs (plasma from β-glucan-treated vs vehicle-treated whole blood), the “suppressive capacity of Tregs” value is on record as “significant decreases”. In the test with CD4 T cells, the “Change in MFI on T cells: 4-1BB” value is “No change”, the “Change in MFI on T cells: CD28” value is reported as “No change”, the “Change in MFI on T cells: CD40L” value is reported as “No change” and the “Change in MFI on T cells: CTLA-4” value is recorded as “No change”. Further, in the test on CD4 T cells (day 9), the “Change in MFI on T cells: PD1 (CD279)” value is recorded as “Increased expression; also recorded: Increase”. Besides, in the test with H1299 NSCLC tumors (spleen cells stimulated overnight with 100 ng/ml LPS), the TNF-α production result was “increase”. In addition, in the test on H1299 NSCLC tumors (spleen, CD11b+Gr1+ cells), the Arginase-1 result is “decreased”, the CD86 entry is listed as “increased” and the iNOS result is on record as “increased”. Moreover, in the test on H1299 NSCLC tumors (setting [1]), the Arginase-1 result was “decrease” and the iNOS result is listed as “increase”. Besides, the “expression of co-stimulatory marker CD86” value in the test on H1299 NSCLC tumors (tumor granulocytic MDSC (CD11b+Lyg6+)) is on record as “enhanced expression”.

Source of the values: patent US10111900B2, “β-glucan methods and compositions that affect the tumor microenvironment” (Biothera, Inc., priority 2014, dated 2018).
